Patent US20240351966A1, “CLASS OF ALKYLPHENOL COMPOUNDS AND PREPARATION METHOD THEREFOR” (Shanghai Institute of Materia Medica, Chinese Academy of …, priority 2021, published 2024)

Each compound was assayed against DRAK2 (Homo sapiens (Human), UniProt O94768) (assay: Evaluation of DRAK2 inhibitory activity by ADP-Glo kinase assay). Settings: ADP-Glo luminescent kinase assay.
Assay type: biochemical
Source text: To determine the inhibitory activity of compounds against kinases by the kinase assay kit ADP-GLO.
DRAK2 is a serine/threonine protein kinase. ADP Glo& #8482; Kinase Assay (ADP Glo& #8482; Kinase Assay Kit) is a luminescent kinase assay kit that can detect ADP formed during kinase reactions; this kit can firstly convert ADP into ATP, which is then captured by Ultra Glo& #8482, luciferase and ultimately converts into light. The emitted light signal is positively correlated with the corresponding ATP, thus through this method, the inhibitory activity of small molecule compounds on DRAK2 can be measured.
The compound was dissolved in DMSO before experiment to prepare stock solution.
When using, the stock solution was diluted with culture medium to a desired concentration.
• 1. 1 μl of compound was added to the well for each assay • 2. […] 2 μl of ATP was added to each well of the assay plate • 4. the plate was shook and centrifuged.
2.5 μl ADP-Glo™ reagent was add to terminate kinase reaction and consume unconsumed ATP, leaving only ADP and very low ATP background to incubate at room temperature for 60 minutes.
5 μl of kinase assay reagent was add to convert ADP to ATP, and luciferase and […] were introduced to detect ATP.
Envision was used to measure luminescence
• 1. Values were copied from Envision program
The “minimum” refers to the proportion of without enzyme control, while “maximum” refers to the proportion of DMSO control. • 3. GraphPad Prism 5.0 was used to process data
Through this method, the inhibitory activity of small molecule compounds on DRAK2 can be obtained.

DRAK2, sequence (O94768 whole entry, species assumed): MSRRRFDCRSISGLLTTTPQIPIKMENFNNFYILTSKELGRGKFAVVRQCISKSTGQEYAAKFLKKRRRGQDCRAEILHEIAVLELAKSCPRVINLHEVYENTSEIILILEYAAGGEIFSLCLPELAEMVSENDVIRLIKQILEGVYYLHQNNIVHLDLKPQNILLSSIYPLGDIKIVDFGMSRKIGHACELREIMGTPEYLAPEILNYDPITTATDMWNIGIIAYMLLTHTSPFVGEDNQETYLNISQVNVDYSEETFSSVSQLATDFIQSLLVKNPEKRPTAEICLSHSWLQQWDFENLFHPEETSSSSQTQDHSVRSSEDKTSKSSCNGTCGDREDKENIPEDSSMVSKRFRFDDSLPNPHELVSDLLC

IC50 [µM]	SMILES
4.93 ± 1.09	CCCCCCc1cccc(CCCc2cc(O)cc(NS(=O)(=O)CC)c2)c1 [Compound 39]
4.06 ± 0.35	CCCCCCc1cccc(CCCc2cc(O)cc(O)c2Cl)c1 [Compound 28]
4.94 ± 1.18	CCCCCCc1cccc(CCCc2cc(O)cc(O)c2)c1 [Compound 17]
7.73 ± 0.7	CCCCCCC=CCCCCCCCc1ccc(O)cc1O [Compound 1]
